Experiments:
[1] = target: T1, human orexin-1 receptor (Homo sapiens, UniProt O43613); experiment: Intracellular calcium measurements (FLIPR), orexin receptor antagonistic activity, OX1; type: cell-based; conditions: CHO cells expressing human orexin-1 receptor, 10 nM orexin-A as agonist
T1 construct: expressed in transfected cells; host or cells: CHO (Chinese hamster ovary) cells, grown under G418 selection
T1 sequence (O43613 1-425): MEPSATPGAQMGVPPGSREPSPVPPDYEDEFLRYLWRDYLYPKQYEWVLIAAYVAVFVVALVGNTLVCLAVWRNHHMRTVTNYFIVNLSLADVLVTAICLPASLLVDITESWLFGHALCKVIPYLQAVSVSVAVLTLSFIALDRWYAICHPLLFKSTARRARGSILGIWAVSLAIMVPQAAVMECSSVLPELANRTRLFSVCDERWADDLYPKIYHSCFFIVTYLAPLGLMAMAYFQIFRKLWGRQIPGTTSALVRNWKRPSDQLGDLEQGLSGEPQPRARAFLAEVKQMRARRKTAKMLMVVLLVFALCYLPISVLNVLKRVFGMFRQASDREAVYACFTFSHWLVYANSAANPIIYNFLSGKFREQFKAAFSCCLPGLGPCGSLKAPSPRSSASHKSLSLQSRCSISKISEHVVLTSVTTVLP
Experimental: (§1) The orexin receptor antagonistic activity of the compounds of formula (I) is determined in accordance with the following experimental method.
(§2) Intracellular Calcium Measurements:
(§3) Chinese hamster ovary (CHO) cells expressing the human orexin-1 receptor and the human orexin-2 receptor, respectively, are grown in culture medium (Ham F-12 with L-Glutamine) containing 300 μg/ml G418, 100 U/ml penicillin, 100 μg/ml streptomycin and 10% inactivated fetal calf serum (FCS). The cells are seeded at 80,000 cells/well into 96-well black clear bottom sterile plates (Costar) which have been precoated with 1% gelatine in Hanks' Balanced Salt Solution (HBSS). All reagents are from Gibco BRL. The seeded plates are incubated overnight at 37° C. in 5% CO2.
(§4) Human orexin-A as an agonist is prepared as 1 mM stock solution in MeOH: water (1:1), diluted in HBSS containing 0.1% bovine serum albumin (BSA) and 2 mM HEPES for use in the assay at a final concentration of 10 nM.
(§5) Antagonists are prepared as 10 mM stock solution in DMSO, then diluted in 96-well plates, first in DMSO, then in HBSS containing 0.1% bovine serum albumin (BSA) and 2 mM HEPES.
(§6) On the day of the assay, 100 μl of loading medium (HBSS containing 1% FCS, 2 mM HEPES, 5 mM probenecid (Sigma) and 3 μM of the fluorescent calcium indicator fluo-3 AM (1 mM stock solution in DMSO with 10% pluronic acid) (Molecular Probes) is added to each well.
(§7) The 96-well plates are incubated for 60 min at 37° C. in 5% CO2. The loading solution is then aspirated and cells are washed 3 times with 200 μl HBSS containing 2.5 mM probenecid, 0.1% BSA, 2 mM HEPES. 100 μl of that same buffer is left in each well.
(§8) Within the Fluorescent Imaging Plate Reader (FLIPR, Molecular Devices), antagonists are added to the plate in a volume of 50 μl, incubated for 20 min and finally 100 μl of agonist is added. Fluorescence is measured for each well at 1 second intervals, and the height of each fluorescence peak is compared to the height of the fluorescence peak induced by 10 nM orexin-A with buffer in place of antagonist.

[2] = target: T2, human orexin-2 receptor (Homo sapiens, UniProt O43614); experiment: Intracellular calcium measurements (FLIPR), orexin receptor antagonistic activity, OX2; type: cell-based; conditions: CHO cells expressing human orexin-2 receptor, 10 nM orexin-A as agonist
T2 construct: expressed in transfected cells; host or cells: CHO (Chinese hamster ovary) cells, grown under G418 selection
T2 sequence (O43614 1-444): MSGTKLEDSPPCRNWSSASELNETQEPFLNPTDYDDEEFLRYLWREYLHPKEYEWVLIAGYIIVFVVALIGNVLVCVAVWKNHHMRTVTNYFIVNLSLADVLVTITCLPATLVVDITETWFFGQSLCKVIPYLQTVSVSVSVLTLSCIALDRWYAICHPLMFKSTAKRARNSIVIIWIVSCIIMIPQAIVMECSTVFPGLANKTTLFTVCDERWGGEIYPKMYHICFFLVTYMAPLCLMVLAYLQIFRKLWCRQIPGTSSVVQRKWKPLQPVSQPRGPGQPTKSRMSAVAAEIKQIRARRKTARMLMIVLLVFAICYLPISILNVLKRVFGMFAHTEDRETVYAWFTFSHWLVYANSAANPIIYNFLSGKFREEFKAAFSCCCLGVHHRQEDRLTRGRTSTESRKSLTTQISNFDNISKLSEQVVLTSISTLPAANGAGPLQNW
Experimental: as §1, §2, §3, §4, §5, §6, §7, §8

SMILES | IC50 [1] [µM] | IC50 [2] [µM]
Cc1ccc(C(=O)N2C[C@H]3C[C@H]3[C@H]2CNC(=O)c2c3c(cc4c2OCC4)OCC3)c(-c2cccc(F)c2)c1 (relative stereo) [Compound 318] | 0.196 | 0.114
Cc1nc2sccn2c1C(=O)NC[C@@H]1[C@@H]2C[C@@H]2CN1S(=O)(=O)c1ccccc1OC(F)(F)F (relative stereo) [Example 3, 6-methyl-imidazo[2,1-b]thiazole-5-carboxylic acid [(1R*,2S*,5S*)-3-(2-trifluoromethoxy-benzenesulfonyl)-3-aza-bicyclo[3.1.0]hex-2-ylmethyl]-amide] | 0.158 | 0.348
Cc1nc(C(=O)N2C[C@H]3C[C@H]3[C@H]2CNC(=O)c2ccc(F)cc2)c(-c2cccc(F)c2)s1 (relative stereo) [Example 8, 4-fluoro-N-{[(1R*,2S*,5S*)-3-[5-(3-fluoro-phenyl)-2-methyl-thiazole-4-carbonyl]-3-aza-bicyclo[3.1.0]hex-2-ylmethyl}-benzamide] | 0.994 | 0.096
CCc1ccc(-c2sc(C)nc2C(=O)N2C[C@H]3C[C@H]3[C@H]2CNC(=O)c2cccc3occc23)cc1 (relative stereo) [Example 16, benzofuran-4-carboxylic acid {(1R*,2S*,5S*)-3-[5-(4-ethyl-phenyl}2-methyl-thiazole-4-carbonyl]-3-aza-bicyclo[3.1.0]hex-2-ylmethyl}-amide] | 0.143 | 0.033
Nc1nc(-c2ccccc2C(=O)N2C[C@H]3C[C@H]3[C@H]2CNC(=O)c2cccc3occc23)cs1 (relative stereo) [Example 30, benzofuran-4-carboxylic acid {(1R*,2S*,5S*)-3-[2-(2-amino-thiazol-4-yl)benzoyl]-3-aza-bicyclo[3.1.0]hex-2-ylmethyl}-amide] | 1.21 | 0.032
O=C(NC[C@@H]1[C@@H]2C[C@@H]2CN1C(=O)c1cccc2c1-c1ccccc1C2)c1cccc2occc12 (relative stereo) [Example 31, benzofuran-4-carboxylic acid [(1R*,2S*,5S*)-3-(9H-fluorene-4-carbonyl)-3-aza-bicyclo[3.1.0]hex-2-ylmethyl]-amide] | 0.24 | 0.051
O=C(NC[C@@H]1[C@@H]2C[C@@H]2CN1C(=O)c1nccnc1-c1ccccc1)c1cccc2occc12 (relative stereo) [Example 32, benzofuran-4-carboxylic acid [(1R*,2S*,5S*)-3-(3-phenyl-pyrazine-2-carbonyl)-3-aza-bicyclo[3.1.0]hex-2-ylmethyl]-amide] | 2.96 | 0.091
COc1ccc(-c2ocnc2C(=O)N2C[C@H]3C[C@H]3[C@H]2CNC(=O)c2cccc3occc23)cc1 (relative stereo) [Example 33, benzofuran-4-carboxylic acid {(1R*,2S*,5S*)-3-[5-(4-methoxy-phenyl)-oxazole-4-carbonyl]-3-aza-bicyclo[3.1.0]hex-2-ylmethyl}-amide] | 2.17 | 0.094

The next lines start with the values.

IC50 [1] [µM] | IC50 [2] [µM] | SMILES
0.373 | 0.061 | Cc1ccc(C(=O)N2C[C@H]3C[C@H]3[C@H]2CNC(=O)c2cccc3c2OCCO3)c(C#CC2CC2)c1 (racemic) [Example 379, 2,3-Dihydro-benzo[1,4]dioxine-5-carboxylic acid [(1R*,2S*,5S*)-3-(2-cyclopropylethynyl-4-methyl-benzoyl)-3-aza-bicyclo[3.1.0]hex-2-ylmethyl]-amide]
0.237 | 0.05 | O=C(NC[C@@H]1[C@@H]2C[C@@H]2CN1C(=O)c1ccccc1-c1ccc(Cl)cc1)c1cccc2occc12 (relative stereo) [Example 42, benzofuran-4-carboxylic acid [(1R*,2S*,5S*)-3-(4′-chloro-biphenyl-2-carbonyl)-3-aza-bicyclo[3.1.0]hex-2-ylmethyl]-amide]
0.596 | 0.076 | Cc1nc(C(=O)N2C[C@H]3C[C@H]3[C@H]2CNc2cnc3cc(F)c(F)cc3n2)c(-c2ccc(F)cc2)s1 (relative stereo) [Example 60, {(1R*,2S*,5S*)-2-[(6,7-difluoro-quinoxalin-2-ylamino)-methyl]-3-aza-bicyclo[3.1.0]hex-3-yl}-[5-(4-fluoro-phenyl)-2-methyl-thiazol-4-yl]-methanone]
0.162 | 0.242 | O=C(c1ccccc1-c1ccccc1)N1C[C@H]2C[C@H]2[C@H]1CNc1ncc(Br)cn1 (relative stereo) [Example 64, biphenyl-2-yl-{(1R*,2S*,5S*)-2-[(5-bromo-pyrimidin-2-ylamino)methyl]-3-aza-bicyclo[3.1.0]hex-3-yl}-methanone]
0.099 | 0.016 | Cc1cccc(-c2sc(C)nc2C(=O)N2C[C@H]3C[C@H]3[C@H]2CNC(=O)c2sc(Br)nc2C)c1 (relative stereo) [Example 74, 2-bromo-4-methyl-thiazole-5-carboxylic acid [(1R*,2S*,5S*)-3-(2-methyl-5-m-tolyl-thiazole-4-carbonyl)-3-aza-bicyclo[3.1.0]hex-2-ylmethyl]-amide]
0.864 | 0.05 | Cc1cccc(-c2sc(C)nc2C(=O)N2C[C@H]3C[C@H]3[C@H]2CNC(=O)c2sc(C)nc2C)c1 (relative stereo) [Example 82, 2,4-dimethyl-thiazole-5-carboxylic acid [(1R*,2S*,5S*)-3-(2-methyl-5-m-tolyl-thiazole-4-carbonyl)-3-aza-bicyclo[3.1.0]hex-2-ylmethyl]-amide]
1.3 | 0.08 | Cc1cccc(-c2sc(C)nc2C(=O)N2C[C@H]3C[C@H]3[C@H]2CNC(=O)c2cnc(CC(C)C)c(C)c2)c1 (relative stereo) [Example 100, 6-isobutyl-5-methyl-N-[(1R*,2S*,5S*)-3-(2-methyl-5-m-tolyl-thiazole-4-carbonyl)-3-aza-bicyclo[3.1.0]hex-2-ylmethyl]-nicotinamide]
0.131 | 0.101 | Cc1cccc(-c2sc(C)nc2C(=O)N2C[C@H]3C[C@H]3[C@H]2CNC(=O)c2cccc3c2OC(C)(C)C3)c1 (relative stereo) [Example 108, 2,2-Dimethyl-2,3-dihydro-benzofuran-7-carboxylic acid [(1R*,2S*,5S*)-3-(2-methyl-5-m-tolyl-thiazole-4-carbonyl)-3-aza-bicyclo[3.1.0]hex-2-ylmethyl]-amide]
0.093 | 0.124 | Cc1cccc(-c2sc(C)nc2C(=O)N2C[C@H]3C[C@H]3[C@H]2CNC(=O)c2cn(C)c3ccccc23)c1 (relative stereo) [Example 114, 1-Methyl-1H-indole-3-carboxylic acid [(1R*,2S*,5S*)-3-(2-methyl-5-m-tolyl-thiazole-4-carbonyl)-3-aza-bicyclo[3.1.0]hex-2-ylmethyl]-amide]
0.098 | 0.102 | Cc1cccc(-c2sc(C)nc2C(=O)N2C[C@H]3C[C@H]3[C@H]2CNC(=O)c2cccc(C(F)(F)F)c2)c1 (relative stereo) [Example 125, N-[(1R*,2S*,5S*)-3-(2-Methyl-5-m-tolyl-thiazole-4-carbonyl)-3-aza-bicyclo[3.1.0]hex-2-ylmethyl]-3-trifluoromethyl-benzamide]

Source: patent US20100016401A1, “3-AZA-BICYCLO[3.1.0]HEXANE DERIVATIVES” (Actelion Phamaceuticals Ltd., priority 2006, published 2010)
